# Data: patent US20050220895A1, “Use of gallium to treat inflammatory arthritis” (priority 2003, published 2005)
# Entries after “also recorded” stand apart in the source; their conditions may differ.
# Tests used:
# [1] = system: male Lewis rats with adjuvant-induced acute arthritis; experiment: Adjuvant-induced acute arthritis model; assay type: in vivo
# Experimental: (§1) Two preclinical animal models were tested for oral gallium efficacy in inflammatory polyarthritis; adjuvant-induced acute arthritis and streptococcal cell wall-induced chronic arthritis, respectively. Male Lewis rats were used in both studies. The models are described in detail in Bendele et al. (1999) Toxicologic Pathology 27(1):134-142 and Bendele (2001) J. Musculoskel. Neuron. Interact. 1(4):377-385.
# (§2) Materials and methods: For the adjuvant-induced acute arthritis model, male Lewis rats (7 per group for Gallium Maltolate, 4 per group for normal controls and dexamethasone-treated controls) were injected with 100 μl of Freund's complete adjuvant/lipoidal amine (FCA/LA) subcutaneously at the base of the tail on study day 0 under anesthesia. The rapid onset (within 7 days) of arthritic symptoms in this model includes ankle inflammation, bone resorption, and mild cartilage destruction. Prophylactic treatment was initiated by dosing with control vehicle or Gallium Maltolate (100 or 300 mg/kg) by daily oral gavage, from seven days prior to adjuvant injection until termination. The dexamethasone-treated control animals were administered a daily oral dose of dexamethasone (0.1 mg/kg). Body weights were measured regularly during the course of the study to track the effect of the drugs on the weight loss induced by the developing adjuvant disease, and dose volumes were adjusted accordingly. Prior to the onset of swelling, but after the establishment of systemic disease (about 7 days after adjuvant injection), caliper measurements were made of ankle joints. Ankles were measured every day until 14 days post-adjuvant injection when the rats were anesthetized and euthanized. Serum was harvested one hour after final dosing for gallium quantitation. Hind paws, liver and spleen were weighed, fixed and processed for histopathologic evaluation. Adjuvant arthritic ankles were given scores of 0-5 (0=normal; 5=severe) for inflammation and bone resorption. Splenic changes of inflammation, increased extramedullary hematopoiesis and lymphoid atrophy were scored 0-5 using criteria similar to those used for scoring of inflammation. The primary endpoint is periarticular inflammation and bone resorption as quantitated by ankle caliper measurements and histopathologic evaluation of ankles (scoring of joints). Secondary endpoints include body weight change and the inhibition of splenomegaly and hepatomegaly.
# [2] = system: male Lewis rats with streptococcal (PGPS) cell wall induced arthritis; experiment: Streptococcal cell wall (PGPS)-induced chronic arthritis model; assay type: in vivo
# Experimental: as §1
# This is a multiple reactivated peptidoglycan-polysaccharide (PGPS)-induced arthritis model. The rapid onset (4-5 days) of arthritic symptoms in this model includes ankle inflammation, bone resorption, mild cartilage destruction.
# (§3) Materials and methods: Male Lewis rats (N=12/group) with developing streptococcal (PGPS) cell wall induced arthritis were treated with gallium maltolate (100, 200 or 300 mg/kg, po, qd) or Cyclosporin A (CSA, 5-20 mg/kg) prophylactically beginning 1 day after intra-articular injection of PGPS into the ankles (day −14) and continued for 14 days at which time systemic reactivation was induced by intravenous (iv) injection of PGPS (day 0). Treatment was continued for another 14 days and animals were reactivated a second time (day 14). Following an additional week of treatment, rats were terminated for a total of […] of dosing. Rats were weighed on days (−)13, (−)7, 0, 8, 14 and 21, at which time, dose volumes were adjusted. Right ankle caliper measurements were taken on days 0, 2, 4, 6, 8, 10, 12, 14, 16, 18, 20 and 21. […] All rats had terminal blood samples obtained for PK sampling. Scoring of Joints: PGPS arthritic ankles are given scores of 0-5 (normal to severe) for inflammation, pannus, cartilage damage, bone resorption and periosteal bone proliferation according criteria similar to the acute arthritis study. The primary endpoint is periarticular inflammation and bone resorption as quantitated by ankle caliper measurements and histopathologic evaluation of ankles (scoring of joints).
# [3] = Serum gallium levels, acute arthritis studies; assay type: in vivo, rat; details: for Mean Serum Gallium Concentration: 14 days, 1 hour post-dosing
# Experimental: as §2, with “Prophylactic treatment was initiated by dosing with control vehicle or Gallium Maltolate (100 or 300 mg/kg) by daily oral gavage, from seven days prior to adjuvant injection until termination.” left out
# The following data was compiled from the above described model studies. All sampling was done 1 hour post-dosing.
# [4] = Serum gallium levels, chronic arthritis study; assay type: in vivo, rat; details: Study PG-PS/TT-1, 100 mg/kg, 1% MC suspension, 35 days, pretreatment 13 days, fasted, 1 hour post-dosing
# Experimental: as §3
# The following data was compiled from the above described model studies. […]
# [5] = system: male Lewis rats with streptococcal (PGPS) cell wall induced arthritis; experiment: Streptococcal cell wall (PGPS)-induced chronic arthritis model; assay type: in vivo; details: 100, 200 and 300 mg/kg daily oral gavage, 35 days
# [6] = 100 or 300 mg/kg daily oral gavage, both doses
compound,measurement,setting,value
"Cc1occc(=O)c1[O-].Cc1occc(=O)c1[O-].Cc1occc(=O)c1[O-].[Ga+3] [gallium maltolate, tris(3-hydroxy-2-methyl-4H-pyran-4-onato) gallium]",safety / signs of toxicity,"[1]; 100 or 300 mg/kg daily oral gavage in 1% methyl cellulose, 14 days, Lewis rats",safe and showed no signs of toxicity; also recorded: safe with no signs of toxicity
same,bone resorption scores,[1]; [6],significant reduction
same,liver and spleen hypertrophy (weights),[1]; [6],dose-related decrease; also recorded: marked reduction
same,effect on body weight (arthritis-induced body weight loss),"[1]; gallium maltolate 100 or 300 mg/kg, dexamethasone 0.1 mg/kg, daily oral",favorable effect
same,"ankle (joint) inflammation, clinical and histological","[1]; gallium maltolate 100 or 300 mg/kg, dexamethasone 0.1 mg/kg, daily oral, vs disease control",reduced ankle inflammation; also recorded: significant reduction; also recorded: Significant dose dependent protection
same,spleen histopathology: atrophy of the lymphoid tissue,[1]; oral gallium maltolate,prevented atrophy
same,spleen histopathology: inflammation in the spleen,[1]; oral gallium maltolate,significantly reduced inflammation
same,inflammation after the first reactivation of arthritis on day 0,[2]; 300 mg/kg oral,slight inhibition
same,"ankle swelling, first reactivation","[2]; 300 mg/kg, day 12",reduced the swelling significantly
same,bone resorption,"[2]; 100, 200 or 300 mg/kg po qd",Significant dose dependent anti-inflammatory effects
same,cartilage (damage),"[2]; 100, 200 or 300 mg/kg po qd",Significant dose dependent anti-inflammatory effects
same,histological inflammation scores,"[2]; 100, 200 or 300 mg/kg po qd",dose-related inhibition
same,pannus,"[2]; 100, 200 or 300 mg/kg po qd",dose-related effect; also recorded: Significant dose dependent anti-inflammatory effects
same,periosteal proliferation,"[2]; 100, 200 or 300 mg/kg po qd",dose-related effect; also recorded: Significant dose dependent anti-inflammatory effects
same,paw weights after the second reactivation,"[2]; 100, 200 or 300 mg/kg po qd, all treated groups",decreased
same,"inhibition of the sum of the scores for inflammation, pannus, cartilage damage and bone damage (joint histopathology)","[2]; 100, 200 or 300 mg/kg po qd, dose responsive",20-45%
same,"ankle swelling after the second reactivation (flare-up, day 14)","[2]; gallium maltolate 100, 200 or 300 mg/kg po qd, Cyclosporin A 5-20 mg/kg",decreased ankle swelling
same,"peak effect on ankle swelling, time after the flare-up",[2]; second reactivation on day 14,≤ 6 days
same,start of decreased ankle swelling after the flare-up,[2]; second reactivation on day 14,≤ 2 days
same,serum gallium levels attained,[3]; 100 or 300 mg/kg daily oral gavage,dose-dependent
same,Mean Serum Gallium Concentration,"[3]; Study LATT-1, 100 mg/kg, solution, pretreatment 1 day, not fasted",652 ng/mL
same,Mean Serum Gallium Concentration,"[3]; Study LATT-2, 100 mg/kg, 1% MC suspension, pretreatment 1 day, fasted",1350 ng/mL
same,Mean Serum Gallium Concentration,"[3]; Study LATT-2, 300 mg/kg, 1% MC suspension, pretreatment 1 day, fasted",3470 ng/mL
same,Mean Serum Gallium Concentration,"[3]; Study LATT-2, 300 mg/kg, 1% MC suspension, pretreatment 7 days, fasted",2960 ng/mL
same,Mean Serum Gallium Concentration,[4],2050 ng/mL
same,safety / signs of toxicity,[5],safe and showed no signs of toxicity; also recorded: safe with no signs of toxicity
